Measured values reported in patent US12686846B2, “Plant sweet and yeast MSF transporter capable of transporting different sugars simultaneously” (THE BOARD OF TRUSTEES OF THE UNIVERSITY OF ILLINOIS, priority 2020, dated 2026).

Tests used:
Type in all cases: cell-based
[1] = biological target: T1, Arabidopsis thaliana AtSWEET7 transporter, wild type (Table 2: SEQ ID NO: 3; FIG. 12: SEQ ID NO:2) (Arabidopsis thaliana, UniProt Q8LBF7); test: C14 labeled sugar uptake assay (zero-trans influx), SR8D8 expressing AtSWEET7; conditions: initial glucose uptake (5 s), 30° C., pH 6.5; cell wet weight; ± SEM
T1 construct: expressed in transfected cells; host or cells: S. cerevisiae SR8D8 (SR8 with HXT1-7 and GAL2 deleted), plasmid p42K-GPD1p-CYC1t
T1 sequence (Q8LBF7 1-258): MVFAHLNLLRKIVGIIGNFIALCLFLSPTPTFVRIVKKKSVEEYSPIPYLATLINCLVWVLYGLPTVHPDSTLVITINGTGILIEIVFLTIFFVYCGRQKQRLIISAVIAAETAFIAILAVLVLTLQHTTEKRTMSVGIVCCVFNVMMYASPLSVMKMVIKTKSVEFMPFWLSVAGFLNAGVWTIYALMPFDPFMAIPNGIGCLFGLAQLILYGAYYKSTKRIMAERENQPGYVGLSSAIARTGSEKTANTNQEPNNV
Procedure: FIG. 7A illustrates sugar uptake kinetics by SR8D8. FIG. 7B illustrates sugar uptake kinetics by SR8D8 expressing AtSWEET1. FIG. 7C illustrates sugar uptake kinetics by SR8D8 expressing ScGal2. FIG. 7D illustrates sugar uptake kinetics by SR8D8 expressing AtSWEET7. FIG. 7E illustrates sugar uptake kinetics by SR8D8 expressing LST1_205437. Initial xylose uptake (20 s) was measured at 30° C. over a concentration range of 1 to 500 mM xylose. FIG. 7F illustrates sugar uptake kinetics by SR8D8. FIG. 7G illustrates sugar uptake kinetics by SR8D8 expressing AtSWEET1. FIG. 7H illustrates sugar uptake kinetics by SR8D8 expressing ScGal2. FIG. 7I illustrates sugar uptake kinetics by SR8D8 expressing AtSWEET7. FIG. 7J illustrates sugar uptake kinetics by SR8D8 expressing LST1_205437. Initial glucose uptake (5 s) was measured at 30° C. over a concentration range of 0.2 to 100 mM glucose. […]
(§1) A xylose fermenting S. cerevisiae yeast (SR8) with HXT1-7Δ, GAL2Δ deletions was used for transporter screening and characterization (SR8D8). […] Biomass was calculated from the OD600 measured using a Biomate 5 UV-visible spectrophotometer (Fisher, NY, USA). All growth rates were measured using a Bioscreen C plate reader system (Growth Curves USA, Piscataway, NJ, USA). […]
Uptake was measured at sugar concentrations 0.2, 1, 5, 25, and 100 mM for glucose and 1, 5, 25, 66, 100, 200, and 500 mM for xylose. […]

[2] = biological target: T2, Saccharomyces cerevisiae ScGal2 (Gal2) transporter, SEQ ID NO:32 (Saccharomyces cerevisiae, UniProt P13181); test: C14 labeled sugar uptake assay (zero-trans influx), SR8D8 expressing ScGal2; conditions: initial glucose uptake (5 s), 30° C., pH 6.5
T2 construct: expressed in transfected cells; host or cells: S. cerevisiae SR8D8 (SR8 with HXT1-7 and GAL2 deleted), plasmid p42K-GPD1p-CYC1t
T2 sequence (P13181 1-574): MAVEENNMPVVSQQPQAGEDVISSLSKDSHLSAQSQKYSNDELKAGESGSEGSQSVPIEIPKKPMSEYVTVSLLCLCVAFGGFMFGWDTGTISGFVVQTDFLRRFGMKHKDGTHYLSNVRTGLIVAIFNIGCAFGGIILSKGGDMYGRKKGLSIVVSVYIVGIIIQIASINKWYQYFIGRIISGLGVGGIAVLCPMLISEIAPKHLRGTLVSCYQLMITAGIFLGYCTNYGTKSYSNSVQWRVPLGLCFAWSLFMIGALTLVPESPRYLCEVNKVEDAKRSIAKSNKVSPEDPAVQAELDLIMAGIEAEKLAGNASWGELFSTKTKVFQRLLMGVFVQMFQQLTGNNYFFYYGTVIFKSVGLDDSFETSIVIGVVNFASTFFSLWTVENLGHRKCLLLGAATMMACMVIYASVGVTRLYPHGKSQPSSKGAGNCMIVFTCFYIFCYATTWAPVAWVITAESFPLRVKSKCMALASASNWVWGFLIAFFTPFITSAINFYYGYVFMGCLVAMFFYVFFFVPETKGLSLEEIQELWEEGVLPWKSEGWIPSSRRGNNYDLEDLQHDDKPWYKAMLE
Procedure: (§2) FIG. 7A illustrates sugar uptake kinetics by SR8D8. FIG. 7B illustrates sugar uptake kinetics by SR8D8 expressing AtSWEET1. FIG. 7C illustrates sugar uptake kinetics by SR8D8 expressing ScGal2. FIG. 7D illustrates sugar uptake kinetics by SR8D8 expressing AtSWEET7. FIG. 7E illustrates sugar uptake kinetics by SR8D8 expressing LST1_205437. Initial xylose uptake (20 s) was measured at 30° C. over a concentration range of 1 to 500 mM xylose. FIG. 7F illustrates sugar uptake kinetics by SR8D8. FIG. 7G illustrates sugar uptake kinetics by SR8D8 expressing AtSWEET1. FIG. 7H illustrates sugar uptake kinetics by SR8D8 expressing ScGal2. FIG. 7I illustrates sugar uptake kinetics by SR8D8 expressing AtSWEET7. FIG. 7J illustrates sugar uptake kinetics by SR8D8 expressing LST1_205437. Initial glucose uptake (5 s) was measured at 30° C. over a concentration range of 0.2 to 100 mM glucose. Curve fitting for Michaelis-Menten kinetics was applied to data of three independent measurements at each concentration.
as §1, with “(SR8D8). SR8D8 was grown in YPE medium/plate (10 g/L yeast extract, 20 g/L peptone, and 5 g/L ethanol).” for “(SR8D8).”
(§3) SR8D8 containing the respective plasmid was grown on selective YPE medium to an OD600 of 1-1.5, harvested by centrifugation, and washed twice in ice-cold uptake buffer (100 mM potassium phosphate, pH 6.5). […] Radioactivity was analyzed in a Beckman-Coulter LS6500 multi-purpose liquid scintillation counter (Beckman-Coulter, CA, USA).
(§4) Uptake was measured at sugar concentrations 0.2, 1, 5, 25, and 100 mM for glucose and 1, 5, 25, 66, 100, 200, and 500 mM for xylose. Inhibition of xylose uptake by glucose was measured at 25, 66, and 100 mM xylose with additional 25 and 100 mM unlabeled glucose.

[3] = biological target: T3, Lipomyces starkeyi LST1_205437 transporter, wild type, SEQ ID NO: 4 (Lipomyces starkeyi, UniProt A0A1E3QE37); test: C14 labeled sugar uptake assay (zero-trans influx), SR8D8 expressing LST1_205437; conditions: initial glucose uptake (5 s), 30° C., pH 6.5; cell wet weight; ± SEM
T3 construct: whole-cell 14C sugar uptake
T3 sequence (A0A1E3QE37 1-603): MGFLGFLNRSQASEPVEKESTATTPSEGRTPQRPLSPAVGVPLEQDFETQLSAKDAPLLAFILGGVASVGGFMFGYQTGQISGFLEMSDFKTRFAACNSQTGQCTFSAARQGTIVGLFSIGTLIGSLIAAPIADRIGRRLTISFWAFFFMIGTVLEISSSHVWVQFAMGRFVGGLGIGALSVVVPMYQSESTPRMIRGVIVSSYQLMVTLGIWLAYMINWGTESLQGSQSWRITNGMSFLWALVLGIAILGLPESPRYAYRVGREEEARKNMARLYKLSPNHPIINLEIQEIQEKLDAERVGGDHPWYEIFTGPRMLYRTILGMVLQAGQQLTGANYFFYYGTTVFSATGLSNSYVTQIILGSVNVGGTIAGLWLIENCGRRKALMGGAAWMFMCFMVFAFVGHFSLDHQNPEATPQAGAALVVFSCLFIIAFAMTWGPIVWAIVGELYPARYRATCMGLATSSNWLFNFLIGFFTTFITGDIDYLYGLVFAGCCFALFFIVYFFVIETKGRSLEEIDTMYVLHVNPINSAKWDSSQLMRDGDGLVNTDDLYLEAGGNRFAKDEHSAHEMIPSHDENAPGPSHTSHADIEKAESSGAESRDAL
Procedure: as §2
as §1, with “(SR8D8). SR8D8 was grown in YPE medium/plate (10 g/L yeast extract, 20 g/L peptone, and 5 g/L ethanol).” for “(SR8D8).”
as §3, §4

OC[C@H]1OC(O)[C@H](O)[C@@H](O)[C@@H]1O (stereo partly shown) [Glucose]
Vmax (glucose) [1]: 110.3 ± 7.2 nmol/min/mg
Vmax (glucose) [2]: 38.33 nmol/min/mg
Vmax (glucose) ([2]; cell wet weight, ± SEM): 38.3 ± 1.4 nmol/min/mg
Vmax (glucose) [3]: 47.0 ± 2.6 nmol/min/mg
